Assay results reported in the supplement of paper PMC10627819.

Experiments:
[1] = test system: B. subtilis 168; assay: fitness (endpoint OD595 vs no drug) (fraction); higher = more growth
Method in brief: (§1)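 At 37 °C, bacteria in TSB, LB Lennox or CY were grown in 384-well plates from a starting OD595 of 0.01. OD595 was measured every 30 min for 14 h, with the first reading used as background. Fitness is the optical density at the switch to stationary phase as a fraction of the robust mean of no-drug control wells, capped at 1.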

[2] = test system: S. aureus DSM 20231; assay: as above
Method in brief: as §1

[3] = test system: S. aureus Newman; assay: as above
Method in brief: as §1

[4] = test system: B. subtilis 168; assay: Bliss interaction score (quartile over a dose matrix) (fitness difference); higher = more antagonism (negative = synergy)
Method in brief: (§2)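 Values were capped at 1 after dividing OD595 at stationary-phase entry by the plate's robust no-drug mean. This ratio is fitness, and single-drug fitness was inferred from the combination data. The Bliss score is observed minus product-expected fitness, given as quartiles over technical, biological and donor/recipient replicates.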

[5] = test system: S. aureus DSM 20231; assay: as above
Method in brief: as §2

[6] = test system: S. aureus Newman; assay: as above
Method in brief: as §2

[7] = test system: S. pneumoniae D39V; assay: as above
Method in brief: as §2

[8] = first compound 0.25 µg/mL, partner 0.39 µg/mL
[9] = first compound 0.25 µg/mL, partner 0.78 µg/mL
[10] = first compound 0.25 µg/mL, partner 1.56 µg/mL
[11] = first compound 0.5 µg/mL, partner 0.39 µg/mL
[12] = first compound 0.5 µg/mL, partner 1.56 µg/mL
[13] = first compound 0.125 µg/mL, partner 0.39 µg/mL
[14] = first compound 0.125 µg/mL, partner 0.78 µg/mL
[15] = first compound 0.125 µg/mL, partner 1.56 µg/mL
[16] = first compound 0.25 µg/mL, partner 0.625 µg/mL
[17] = first compound 0.25 µg/mL, partner 1.25 µg/mL
[18] = first compound 0.25 µg/mL, partner 2.5 µg/mL
[19] = first compound 0.5 µg/mL, partner 0.625 µg/mL
[20] = first compound 0.5 µg/mL, partner 1.25 µg/mL
[21] = first compound 0.5 µg/mL, partner 2.5 µg/mL
[22] = first compound 0.125 µg/mL, partner 0.625 µg/mL
[23] = first compound 0.125 µg/mL, partner 1.25 µg/mL
[24] = first compound 0.125 µg/mL, partner 2.5 µg/mL
[25] = first compound 0.25 µg/mL, partner 1.562 µg/mL
[26] = first compound 0.25 µg/mL, partner 3.124 µg/mL
[27] = first compound 0.5 µg/mL, partner 1.562 µg/mL
[28] = first compound 0.5 µg/mL, partner 3.124 µg/mL
[29] = first compound 0.125 µg/mL, partner 0.781 µg/mL
[30] = first compound 0.125 µg/mL, partner 1.562 µg/mL
[31] = first compound 0.125 µg/mL, partner 3.124 µg/mL
[32] = first compound 0.25 µg/mL, partner 0.781 µg/mL
[33] = first compound 0.5 µg/mL, partner 0.781 µg/mL
[34] = first compound 0.25 µg/mL, partner 5 µg/mL
[35] = first compound 0.5 µg/mL, partner 5 µg/mL
[36] = first compound 0.125 µg/mL, partner 5 µg/mL
[37] = first compound 0.25 µg/mL, partner 1 µg/mL
[38] = first compound 0.25 µg/mL, partner 2 µg/mL
[39] = first compound 0.25 µg/mL, partner 4 µg/mL
[40] = first compound 0.5 µg/mL, partner 2 µg/mL
[41] = first compound 0.5 µg/mL, partner 4 µg/mL
[42] = first compound 0.125 µg/mL, partner 1 µg/mL
[43] = first compound 0.125 µg/mL, partner 2 µg/mL
[44] = first compound 0.125 µg/mL, partner 4 µg/mL
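Throughout, for Bliss interaction score (quartile over a dose matrix): first quartile when negative (synergy) and third quartile when positive (antagonism).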

CC[C@H]1OC(=O)[C@H](C)[C@@H](O[C@H]2C[C@@](C)(OC)[C@@H](O)[C@H](C)O2)[C@H](C)[C@@H](O[C@@H]2O[C@H](C)C[C@H](N(C)C)[C@H]2O)[C@](C)(O)C[C@@H](C)CN(C)[C@H](C)[C@@H](O)[C@]1(C)O [Azithromycin] + COc1ccc(C[C@H](N)C(=O)N[C@H]2[C@@H](O)[C@H](n3cnc4c(N(C)C)ncnc43)O[C@@H]2CO)cc1 [Puromycin]
fitness [1, 8]: 0.888 | fitness [1, 9]: 0.913 | fitness [1, 10]: 0.95 | fitness [1, 11]: 0.828 | fitness ([1]; first compound 0.5 µg/mL, partner 0.78 µg/mL): 0.815 | fitness [1, 12]: 0.82 | fitness [2, 13]: 0.849 | fitness [2, 14]: 0.863 | fitness [2, 15]: 0.923 | fitness ([2]; first compound 0.125 µg/mL, partner 3.12 µg/mL, one replicate): ≥ 1 | fitness ([2]; first compound 0.125 µg/mL, partner 6.24 µg/mL, one replicate): 0.615 | fitness [2, 8]: 0.881 | fitness [2, 9]: 0.936 | fitness [2, 10]: 0.891 | fitness ([2]; first compound 0.25 µg/mL, partner 3.12 µg/mL, one replicate): 0.915 | fitness ([2]; first compound 0.25 µg/mL, partner 6.24 µg/mL, one replicate): 0.237 | fitness ([2]; first compound 0.5 µg/mL, partner 3.12 µg/mL, one replicate): 0.293 | fitness ([2]; first compound 0.5 µg/mL, partner 6.24 µg/mL, one replicate): 0.0525 | fitness [3, 13]: 0.915 | fitness [3, 14]: 0.905 | fitness [3, 15]: 0.945 | fitness [3, 8]: 0.884 | fitness [3, 9]: 0.836 | fitness [3, 10]: 0.889 | fitness [3, 11]: 0.559 | fitness [3, 12]: 0.524 | Bliss interaction score [4]: -0.0345 | Bliss interaction score [5]: -0.0839 | Bliss interaction score [6]: -0.0828 | Bliss interaction score [7]: -0.0719

CC[C@H]1OC(=O)[C@H](C)[C@@H](O[C@H]2C[C@@](C)(OC)[C@@H](O)[C@H](C)O2)[C@H](C)[C@@H](O[C@@H]2O[C@H](C)C[C@H](N(C)C)[C@H]2O)[C@](C)(O)C[C@@H](C)CN(C)[C@H](C)[C@@H](O)[C@]1(C)O [Azithromycin] + COc1cccc2c1C(=O)c1c(O)c3c(c(O)c1C2=O)C[C@@](O)(C(=O)CO)C[C@@H]3O[C@H]1C[C@H](N)[C@H](O)[C@H](C)O1 [Doxorubicin]
fitness [1, 16]: 0.964 | fitness [1, 17]: 0.92 | fitness [1, 18]: 0.791 | fitness [1, 19]: 0.879 | fitness [1, 20]: 0.847 | fitness [1, 21]: 0.767 | fitness ([1]; first compound 2 µg/mL, partner 0.625 µg/mL, one replicate): 0.358 | fitness ([1]; first compound 2 µg/mL, partner 1.25 µg/mL, one replicate): 0.176 | fitness ([1]; first compound 2 µg/mL, partner 2.5 µg/mL, one replicate): 0.0297 | fitness [2, 22]: 0.811 | fitness [2, 23]: 0.794 | fitness [2, 24]: 0.781 | fitness [2, 16]: 0.811 | fitness [2, 17]: 0.824 | fitness [2, 18]: 0.778 | fitness [2, 19]: 0.62 | fitness [2, 20]: 0.672 | fitness [2, 21]: 0.569 | fitness [3, 22]: 0.777 | fitness [3, 23]: 0.775 | fitness [3, 24]: 0.735 | fitness [3, 16]: 0.827 | fitness [3, 17]: 0.779 | fitness [3, 18]: 0.77 | fitness [3, 19]: 0.659 | fitness [3, 20]: 0.665 | fitness [3, 21]: 0.561 | Bliss interaction score [4]: 0.164 | Bliss interaction score [5]: 0.115 | Bliss interaction score [6]: 0.0458 | Bliss interaction score [7]: -0.0571

CC[C@H]1OC(=O)[C@H](C)[C@@H](O[C@H]2C[C@@](C)(OC)[C@@H](O)[C@H](C)O2)[C@H](C)[C@@H](O[C@@H]2O[C@H](C)C[C@H](N(C)C)[C@H]2O)[C@](C)(O)C[C@@H](C)CN(C)[C@H](C)[C@@H](O)[C@]1(C)O [Azithromycin] + C[C@@H]1O[C@@H]1P(=O)(O)O [Fosfomycin]
fitness [1, 25]: 0.713 | fitness [1, 26]: 0.61 | fitness ([1]; first compound 0.25 µg/mL, partner 6.248 µg/mL): 0.445 | fitness [1, 27]: 0.622 | fitness [1, 28]: 0.582 | fitness ([1]; first compound 0.5 µg/mL, partner 6.248 µg/mL): 0.442 | fitness ([1]; first compound 2 µg/mL, partner 1.562 µg/mL, one replicate): 0.367 | fitness ([1]; first compound 2 µg/mL, partner 3.124 µg/mL, one replicate): 0.176 | fitness ([1]; first compound 2 µg/mL, partner 6.248 µg/mL, one replicate): 0.0795 | fitness [2, 29]: 0.728 | fitness [2, 30]: 0.615 | fitness [2, 31]: 0.509 | fitness [2, 32]: 0.68 | fitness [2, 25]: 0.625 | fitness [2, 26]: 0.554 | fitness [2, 33]: 0.526 | fitness [2, 27]: 0.306 | fitness [2, 28]: 0.124 | fitness [3, 29]: 0.622 | fitness [3, 30]: 0.525 | fitness [3, 31]: 0.18 | fitness [3, 32]: 0.597 | fitness [3, 25]: 0.429 | fitness [3, 26]: 0.0915 | fitness [3, 33]: 0.312 | fitness [3, 27]: 0.128 | fitness [3, 28]: 0.0235 | Bliss interaction score [4]: 0.0745 | Bliss interaction score [5]: -0.0651 | Bliss interaction score [6]: -0.12 | Bliss interaction score [7]: 0.0708

CC[C@H]1OC(=O)[C@H](C)[C@@H](O[C@H]2C[C@@](C)(OC)[C@@H](O)[C@H](C)O2)[C@H](C)[C@@H](O[C@@H]2O[C@H](C)C[C@H](N(C)C)[C@H]2O)[C@](C)(O)C[C@@H](C)CN(C)[C@H](C)[C@@H](O)[C@]1(C)O [Azithromycin] + C[n+]1ccc(-c2cc[n+](C)cc2)cc1 [Paraquat]
fitness [1, 17]: 0.947 | fitness [1, 18]: 0.919 | fitness [1, 34]: 0.884 | fitness [1, 20]: 0.906 | fitness [1, 21]: 0.866 | fitness [1, 35]: 0.759 | fitness [2, 23]: 0.827 | fitness [2, 24]: 0.846 | fitness [2, 36]: 0.794 | fitness [2, 17]: 0.814 | fitness [2, 18]: 0.75 | fitness [2, 34]: 0.823 | fitness [2, 20]: 0.473 | fitness [2, 21]: 0.51 | fitness [2, 35]: 0.514 | fitness [3, 23]: 0.924 | fitness [3, 24]: 0.904 | fitness [3, 36]: 0.853 | fitness [3, 17]: 0.882 | fitness [3, 18]: 0.845 | fitness [3, 34]: 0.789 | fitness [3, 20]: 0.55 | fitness [3, 21]: 0.575 | fitness [3, 35]: 0.496 | Bliss interaction score [4]: 0.0865 | Bliss interaction score [5]: -0.095 | Bliss interaction score [6]: -0.0372 | Bliss interaction score [7]: 0.0486

CC[C@H]1OC(=O)[C@H](C)[C@@H](O[C@H]2C[C@@](C)(OC)[C@@H](O)[C@H](C)O2)[C@H](C)[C@@H](O[C@@H]2O[C@H](C)C[C@H](N(C)C)[C@H]2O)[C@](C)(O)C[C@@H](C)CN(C)[C@H](C)[C@@H](O)[C@]1(C)O [Azithromycin] + Cc1cc(NS(=O)(=O)c2ccc(N)cc2)no1 [Sulfamethoxazol]
fitness [1, 37]: 0.901 | fitness [1, 38]: 0.89 | fitness [1, 39]: 0.895 | fitness ([1]; first compound 0.5 µg/mL, partner 0.5 µg/mL, one replicate): 0.899 | fitness ([1]; first compound 0.5 µg/mL, partner 1 µg/mL): 0.871 | fitness [1, 40]: 0.834 | fitness [1, 41]: 0.849 | fitness ([1]; first compound 1 µg/mL, partner 0.5 µg/mL, one replicate): 0.788 | fitness ([1]; first compound 2 µg/mL, partner 0.5 µg/mL, one replicate): 0.029 | fitness ([1]; first compound 2 µg/mL, partner 1 µg/mL, one replicate): 0.105 | fitness ([1]; first compound 2 µg/mL, partner 2 µg/mL, one replicate): 0.126 | fitness [2, 42]: 0.911 | fitness [2, 43]: 0.85 | fitness [2, 44]: 0.913 | fitness [2, 37]: 0.85 | fitness [2, 38]: 0.839 | fitness [2, 39]: 0.869 | fitness [2, 40]: 0.545 | fitness [2, 41]: 0.516 | fitness [3, 42]: 0.849 | fitness [3, 43]: 0.88 | fitness [3, 44]: 0.86 | fitness ([3]; first compound 0.125 µg/mL, partner 8 µg/mL, one replicate): 0.895 | fitness [3, 37]: 0.85 | fitness [3, 38]: 0.869 | fitness [3, 39]: 0.837 | fitness ([3]; first compound 0.25 µg/mL, partner 8 µg/mL, one replicate): 0.873 | fitness ([3]; first compound 0.5 µg/mL, partner 8 µg/mL, one replicate): 0.893 | Bliss interaction score [4]: 0.0534 | Bliss interaction score [5]: -0.0683 | Bliss interaction score [6]: -0.0991 | Bliss interaction score [7]: 0.071
